The source made the active and inactive calls.
Experiments:
[1] = molecular target: Heat shock protein HSP 90-alpha (Homo sapiens, UniProt P07900); assay type: functional, organism-based
Large T antigen = Large T antigen (Simian virus 40, UniProt P03070); assay type: functional, Betapolyomavirus macacae;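 further: Confirmatory-stage PubChem screen for compounds that inhibit SV40 T antigen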
[2] = blockade of melanocortin 4 receptor signaling – cell-based, plate reader, cherry pick, counter-screen for LGR2 antagonist project, dose response (AID 743444); assay type: functional;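 further: transfected HEK 293 cells stimulated with alpha-MSH peptide; potency of inhibitors of the alpha-MSH evoked signal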
[3] = toxicity toward HepG2 liver cells – cell-based, plate reader, cherry-pick, antagonist series, cytotoxicity control, dose response (AID 743416); assay type: functional
[4] = A549 cell cytotoxicity, dose response, cytotoxicity control, plate reader, cherry-pick, antagonist series (AID 743412); assay type: functional, cell-based
[5] = viability loss in HEK293 cells – cell-based, plate reader, cherry-picked samples, cytotoxicity control, dose response (AID 743446); assay type: functional
[6] = molecular target: Glyceraldehyde-3-phosphate dehydrogenase (Homo sapiens, UniProt P04406)
Sequence of Glyceraldehyde-3-phosphate dehydrogenase (P04406 whole entry): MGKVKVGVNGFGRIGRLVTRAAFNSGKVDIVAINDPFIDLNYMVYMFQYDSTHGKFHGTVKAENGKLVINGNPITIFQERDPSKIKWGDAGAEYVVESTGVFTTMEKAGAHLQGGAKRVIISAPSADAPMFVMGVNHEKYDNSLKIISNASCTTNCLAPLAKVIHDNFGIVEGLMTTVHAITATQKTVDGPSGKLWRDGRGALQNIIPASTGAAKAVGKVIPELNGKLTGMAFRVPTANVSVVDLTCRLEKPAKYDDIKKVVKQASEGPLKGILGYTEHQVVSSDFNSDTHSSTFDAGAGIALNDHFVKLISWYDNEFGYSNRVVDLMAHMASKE

Protein RecA = molecular target: T1, Protein RecA (Mycobacterium tuberculosis, UniProt P9WHJ3); assay: Fluorescence Cell-Free Homogeneous Dose Retest to Identify Inhibitors of RecA-Intein Splicing Activity. [Related pubchem assays (depositor defined):AID2097, AID2223, AID489010, AID492950]; assay type: functional
T1 sequence (P9WHJ3 whole entry): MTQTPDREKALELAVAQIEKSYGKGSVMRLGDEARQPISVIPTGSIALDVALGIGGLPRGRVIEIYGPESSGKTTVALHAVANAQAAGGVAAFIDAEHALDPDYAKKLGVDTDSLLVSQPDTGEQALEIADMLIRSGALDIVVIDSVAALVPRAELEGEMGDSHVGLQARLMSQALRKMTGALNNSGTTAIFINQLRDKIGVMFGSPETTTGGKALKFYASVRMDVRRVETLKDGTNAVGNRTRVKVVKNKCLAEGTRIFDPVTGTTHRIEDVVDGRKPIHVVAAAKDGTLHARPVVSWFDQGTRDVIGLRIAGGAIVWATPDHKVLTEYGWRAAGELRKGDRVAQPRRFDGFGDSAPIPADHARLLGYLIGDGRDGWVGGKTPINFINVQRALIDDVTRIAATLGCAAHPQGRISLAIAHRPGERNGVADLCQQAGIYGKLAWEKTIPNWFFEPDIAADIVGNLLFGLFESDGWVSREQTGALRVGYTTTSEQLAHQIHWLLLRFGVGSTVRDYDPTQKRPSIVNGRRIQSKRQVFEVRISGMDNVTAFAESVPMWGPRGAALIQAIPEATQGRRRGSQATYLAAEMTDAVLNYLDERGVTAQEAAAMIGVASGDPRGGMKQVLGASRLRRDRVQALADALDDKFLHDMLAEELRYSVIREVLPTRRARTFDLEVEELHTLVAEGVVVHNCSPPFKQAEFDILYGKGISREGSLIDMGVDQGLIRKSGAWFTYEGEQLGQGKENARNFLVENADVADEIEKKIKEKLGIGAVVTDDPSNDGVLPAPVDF

Genome polyprotein = Genome polyprotein (dengue virus type 2, UniProt P29990); assay: flavivirus cap methylation enzyme inhibition – biochemical, confirmation dose response, primary screen (AID 588689); assay type: functional
Sequence of Genome polyprotein (P29990 2492-3391 limits assumed): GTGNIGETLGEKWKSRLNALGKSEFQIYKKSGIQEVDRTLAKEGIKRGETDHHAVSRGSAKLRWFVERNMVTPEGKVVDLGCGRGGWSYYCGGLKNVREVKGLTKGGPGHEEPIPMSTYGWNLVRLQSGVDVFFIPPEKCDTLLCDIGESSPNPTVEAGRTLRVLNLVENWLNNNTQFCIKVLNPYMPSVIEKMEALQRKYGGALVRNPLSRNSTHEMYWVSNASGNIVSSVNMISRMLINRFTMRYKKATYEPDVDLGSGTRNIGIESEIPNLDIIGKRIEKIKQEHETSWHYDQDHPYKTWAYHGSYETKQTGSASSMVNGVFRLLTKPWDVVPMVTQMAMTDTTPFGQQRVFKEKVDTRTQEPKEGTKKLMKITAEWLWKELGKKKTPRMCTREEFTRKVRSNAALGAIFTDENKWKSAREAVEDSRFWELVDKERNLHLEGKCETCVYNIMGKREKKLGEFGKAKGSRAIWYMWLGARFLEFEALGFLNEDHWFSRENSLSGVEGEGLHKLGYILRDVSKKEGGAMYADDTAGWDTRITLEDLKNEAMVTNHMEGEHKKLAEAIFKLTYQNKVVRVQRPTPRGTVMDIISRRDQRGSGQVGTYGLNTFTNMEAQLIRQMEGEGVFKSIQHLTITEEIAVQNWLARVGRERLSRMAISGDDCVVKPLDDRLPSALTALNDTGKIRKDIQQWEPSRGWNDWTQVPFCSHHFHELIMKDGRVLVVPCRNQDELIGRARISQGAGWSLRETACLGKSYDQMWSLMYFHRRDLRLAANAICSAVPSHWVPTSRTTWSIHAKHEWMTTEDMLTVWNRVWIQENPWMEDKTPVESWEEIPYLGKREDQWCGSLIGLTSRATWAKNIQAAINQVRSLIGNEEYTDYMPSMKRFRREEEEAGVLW

[7] = molecular target: T2, Replicative DNA helicase DnaB (Mycobacterium tuberculosis, UniProt P9WMR3); assay: DnaB intein splicing inhibitors, dose response, biochemical, cell-free fluorescence (AID 449749); assay type: functional
T2 sequence (P9WMR3 whole entry): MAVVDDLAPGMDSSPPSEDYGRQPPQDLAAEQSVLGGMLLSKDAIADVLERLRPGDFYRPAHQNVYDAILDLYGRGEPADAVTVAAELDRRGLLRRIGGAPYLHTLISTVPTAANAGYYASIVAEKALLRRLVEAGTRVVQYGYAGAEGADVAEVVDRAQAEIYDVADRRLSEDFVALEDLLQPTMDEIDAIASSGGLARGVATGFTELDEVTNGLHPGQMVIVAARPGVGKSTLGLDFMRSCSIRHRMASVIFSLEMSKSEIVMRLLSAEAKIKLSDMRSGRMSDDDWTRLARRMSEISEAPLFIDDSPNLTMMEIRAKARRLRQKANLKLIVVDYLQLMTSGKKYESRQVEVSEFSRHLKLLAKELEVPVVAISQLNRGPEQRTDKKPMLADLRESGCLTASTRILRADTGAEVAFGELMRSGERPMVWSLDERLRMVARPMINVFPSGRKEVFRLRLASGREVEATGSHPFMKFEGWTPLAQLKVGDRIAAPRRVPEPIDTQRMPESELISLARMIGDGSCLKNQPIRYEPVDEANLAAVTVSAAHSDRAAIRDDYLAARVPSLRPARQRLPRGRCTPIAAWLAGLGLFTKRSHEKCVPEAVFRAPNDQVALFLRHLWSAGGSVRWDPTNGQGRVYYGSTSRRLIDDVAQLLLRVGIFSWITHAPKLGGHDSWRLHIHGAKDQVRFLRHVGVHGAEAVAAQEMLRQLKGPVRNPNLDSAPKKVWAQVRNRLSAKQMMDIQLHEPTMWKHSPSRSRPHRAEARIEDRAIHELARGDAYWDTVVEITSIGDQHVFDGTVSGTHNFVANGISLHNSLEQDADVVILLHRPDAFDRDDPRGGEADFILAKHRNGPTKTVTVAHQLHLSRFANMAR

[8] = molecular target: T3, Trace amine-associated receptor 1 (Homo sapiens, UniProt Q96RJ0); assay: Counterscreen for agonists of the human trace amine associated receptor 1 (hTAAR1): Fluorescence-based cell-based high throughput dose response assay to identify hTAAR1 agonist that also desensitize TAAR1 receptor response.; assay type: functional
T3 sequence (Q96RJ0 whole entry): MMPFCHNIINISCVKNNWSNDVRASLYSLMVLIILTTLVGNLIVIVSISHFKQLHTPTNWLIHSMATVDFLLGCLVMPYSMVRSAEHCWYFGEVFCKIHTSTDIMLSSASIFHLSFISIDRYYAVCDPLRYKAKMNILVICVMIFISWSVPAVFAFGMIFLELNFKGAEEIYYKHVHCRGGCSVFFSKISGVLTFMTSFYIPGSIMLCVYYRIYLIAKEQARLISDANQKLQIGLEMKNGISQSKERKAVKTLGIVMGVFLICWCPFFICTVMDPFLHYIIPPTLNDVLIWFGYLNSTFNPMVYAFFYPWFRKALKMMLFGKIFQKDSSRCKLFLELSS

cells [9] = assay type: functional, cell-based
[10] = microbe, parasite or virus in culture; assay type: functional; settings: Mycobacterium tuberculosis
[11] = NIH3T3 cell viability loss – ATP luminescence, mouse fibroblasts, counter-screen, dose response (AID 2010); assay type: functional, cell-based;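 further: cells exposed to compound for about 90 hours before reading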
[12] = Trypanosoma cruzi growth suppression in host cells – NIH3T3 host cells, beta-gal luminescence, confirmation (AID 2044); assay type: functional, cell-based;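 further: intracellular parasites grown in NIH/3T3 mouse fibroblasts as host cells; luminescent beta-galactosidase reporter signal from transgenic T. cruzi replicating inside host cells; inhibitors lower the luminescence signal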
cells [13] = assay type: functional, cell-based; remark: listed apart in the source
[14] = molecular target: T3, Trace amine-associated receptor 1; assay: Fluorescence-based cell-based high throughput dose response assay to identify agonists of the human trace amine associated receptor 1 (TAAR1).; assay type: functional
[15] = molecular target: T4, Oxysterols receptor LXR-beta (Homo sapiens, UniProt P55055); assay type: functional, cell-based;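 further: agonist activity at LXR measured by a cell-based luminescence readout across a dose range, run as a counterscreen for daf-12 agonists; HEK293 cells with Gal4-LXR fusion and GAL4-driven luciferase reporter; potency for activation of Gal4-LXR reporter so compounds are agonists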
T4 sequence (P55055 whole entry): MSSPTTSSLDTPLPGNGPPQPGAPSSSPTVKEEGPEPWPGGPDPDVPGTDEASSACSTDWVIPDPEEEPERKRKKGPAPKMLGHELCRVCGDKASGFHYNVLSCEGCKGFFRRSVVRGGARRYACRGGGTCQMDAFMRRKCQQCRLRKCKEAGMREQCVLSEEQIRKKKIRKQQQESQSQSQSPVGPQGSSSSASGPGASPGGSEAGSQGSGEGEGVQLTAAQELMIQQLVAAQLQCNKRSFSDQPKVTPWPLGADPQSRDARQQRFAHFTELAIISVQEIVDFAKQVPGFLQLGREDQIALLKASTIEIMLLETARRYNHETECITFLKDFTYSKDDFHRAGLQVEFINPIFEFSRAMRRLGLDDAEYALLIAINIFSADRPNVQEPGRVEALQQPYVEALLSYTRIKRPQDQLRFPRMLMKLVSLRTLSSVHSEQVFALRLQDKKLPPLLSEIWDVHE

[16] = HEK-293T viability loss after treatment – luminescence, T-cell screen hits, cytotoxicity control for TCR NF-kB inhibitor project, dose response (AID 489026); assay type: functional, cell-based;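 further: cells exposed to compound about 14 hours before the viability readout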
[17] = reduction of Shn3 3'UTR-driven luciferase in osteoblasts – cell-based, Clone20 osteoblasts, firefly luciferase, cherry-picked, dose response (AID 624132); assay type: functional;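 further: firefly luciferase luminescence from reporter carrying the Shn3 3'UTR in osteoblasts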
[18] = blockers of bursicon-stimulated LGR2 cAMP reporter – cell-based, HEK293, CRE-luciferase reporter, cherry pick, set 2, dose response (AID 743343); assay type: functional;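 further: transfected cells were stimulated with diluted bursicon conditioned medium after compound addition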
[19] = non-specific 3'UTR reporter inhibition in Clone20-Shn3RL – cell-based, Renilla luciferase, cherry-picked, counter-screen for Shn3 inhibitor project, dose response (AID 624133); assay type: functional
[20] = loss of viability in HepG2 cells – cell-based, CellTiter-Glo, cherry-picked, cytotoxicity control for Shn3 inhibitor project, dose response (AID 624134); assay type: functional

Sequence of Large T antigen (P03070 whole entry): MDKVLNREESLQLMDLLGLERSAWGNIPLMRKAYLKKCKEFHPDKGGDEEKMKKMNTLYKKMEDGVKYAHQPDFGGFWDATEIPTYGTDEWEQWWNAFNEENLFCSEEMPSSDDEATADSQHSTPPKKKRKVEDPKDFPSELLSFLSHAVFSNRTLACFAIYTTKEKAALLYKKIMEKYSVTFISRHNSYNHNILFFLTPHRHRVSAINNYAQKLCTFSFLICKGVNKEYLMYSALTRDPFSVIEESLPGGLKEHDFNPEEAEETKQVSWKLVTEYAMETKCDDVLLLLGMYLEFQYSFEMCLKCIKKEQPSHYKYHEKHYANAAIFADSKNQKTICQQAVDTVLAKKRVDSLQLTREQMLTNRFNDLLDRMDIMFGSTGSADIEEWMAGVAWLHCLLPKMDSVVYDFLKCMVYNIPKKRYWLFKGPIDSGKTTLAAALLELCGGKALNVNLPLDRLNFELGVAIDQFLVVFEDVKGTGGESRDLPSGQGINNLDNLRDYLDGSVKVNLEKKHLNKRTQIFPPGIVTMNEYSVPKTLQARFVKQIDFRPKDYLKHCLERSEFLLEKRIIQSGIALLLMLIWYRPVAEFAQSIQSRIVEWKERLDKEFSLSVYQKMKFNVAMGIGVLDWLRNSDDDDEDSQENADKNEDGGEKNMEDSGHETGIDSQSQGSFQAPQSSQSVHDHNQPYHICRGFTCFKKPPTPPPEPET

SMILES: CC[C@H](C)/C=C/C1=CC2=C(Cl)C(=O)[C@@]3(C)OC(=O)C(C(=O)[C@H](C)[C@@H](C)O)=C3C2=CO1
- AC50 [1]: 7.41 µM (active)
- IC50 (Large T antigen): 44 µM (active)

SMILES: CC1CCN(C(=O)c2ccc(S(=O)(=O)Cc3cc(F)ccc3F)c([N+](=O)[O-])c2)CC1
- AC50 [2]: 53.6 µM (active)
- AC50 [3]: > 52 µM (inactive)
- AC50 [4]: 25.4 µM (active)
- AC50 [5]: 31.7 µM (active)

SMILES: O=C1CC(N2CCC(c3nc4ccccc4o3)CC2)C(=O)N1c1ccc(Cl)c(C(F)(F)F)c1 (configuration not stated)
- AC50 [1]: 2.08 µM (active)

SMILES: Cc1cccc(N2C(=O)C(Cl)=C(N3CCOCC3)C2=O)c1
- IC50 [6]: > 50 µM (inconclusive)
- EC50 (Protein RecA): 1.9 µM (active)
- IC50 (Genome polyprotein): 34.5 µM (active)
- AC50 [7]: 6.69 µM (active)

SMILES: OC(COC(c1ccc(Cl)cc1)c1ccc(Cl)cc1)CN1CCc2ccccc2C1 (configuration not stated)
- EC50 (Protein RecA): 81.5 µM (active)
- IC50 [8]: 9.26 µM (active)
- EC50 (cells [9]): > 29.9 µM (inactive)
- CC50 [10]: 34.7 µM (active)
- EC50 [11]: > 60 µM (inconclusive)
- AC50 [7]: 2.26 µM (active)
- EC50 [12]: 2.16 µM (active)
- IC50 (cells [13]): 12.1 µM (inactive)
- EC50 [14]: 2.13 µM (active)

SMILES: Cc1cnc(NC(=O)COc2ccc3c(c2)CCC3)s1
- EC50 [15]: > 67.6 µM (inactive)

SMILES: O=C(O)C1C2CCC(C2)C1C(=O)NCCC1=CCCCC1 (configuration not stated)
- IC50 [8]: > 29.9 µM (inactive)
- EC50 (cells [9]): > 29.9 µM (inactive)
- IC50 (cells [13]): > 29.9 µM (inactive)
- EC50 [14]: 6.32 µM (active)

SMILES: COc1cccc(NC(=N)N)c1
- IC50 [8]: 5.04 µM (active)
- EC50 (cells [9]): > 29.9 µM (inactive)
- IC50 (cells [13]): > 29.9 µM (inactive)
- EC50 [14]: 1.87 µM (active)

SMILES: CCN1C(=O)/C(=C/Nc2ccccc2)SC1=S
- EC50 [15]: > 67.5 µM (inactive)

SMILES: C/C(=C\C(=O)c1sccc1Cl)N(C)C
- EC50 [15]: > 67.6 µM (inactive)

SMILES: Nc1c2c(nc3sc4c(c13)CCCC4)CCCCC2
- EC50 [15]: > 67.6 µM (inactive)

SMILES: CC1(C)Cc2nc3sc4c(=O)n(CC(=O)NCc5ccccc5)cnc4c3cc2CO1
- IC50 [16]: > 80 µM (inactive)

SMILES: O=[N+]([O-])/C=C/c1c(Cl)cccc1Cl
- AC50 [1]: 1.12 µM (active)

SMILES: Cc1cccc(C)c1-n1nnnc1C(c1cc2ccccc2o1)N1CCC(n2c(O)nc3ccccc32)CC1 (configuration not stated)
- AC50 [17]: 3.05 µM (active)
- AC50 [2]: 3.33 µM (active)
- AC50 [18]: 3.43 µM (active)
- AC50 [3]: 1.98 µM (active)
- AC50 [19]: 4.09 µM (active)
- AC50 [20]: 2.97 µM (active)
- AC50 [4]: 6.22 µM (active)
- AC50 [5]: 4.96 µM (active)

SMILES: COc1ccc(-c2nn(-c3ccccc3)cc2C(=O)N2CCN(S(=O)(=O)c3ccccc3[N+](=O)[O-])CC2)cc1
- AC50 [1]: 3.97 µM (active)

SMILES: COc1cccc(C)c1NC1=NCCO1
- IC50 [8]: 4.12 µM (active)
- EC50 (cells [9]): > 29.9 µM (inactive)
- IC50 (cells [13]): > 29.9 µM (inactive)
- EC50 [14]: 0.734 µM (active)

SMILES: CCSCC(C)(C)n1[nH]c2ccccc2c1=O
- EC50 [15]: > 67.6 µM (inactive)

SMILES: COc1ccccc1NC(=O)N1CCCCN2[C@@H](CO)[C@H](c3ccc(-c4cccc(F)c4)cc3)[C@@H]2C1
- AC50 [2]: 52.2 µM (active)
- AC50 [18]: 64.7 µM (active)
- AC50 [3]: 19 µM (active)
- AC50 [4]: 18.6 µM (active)
- AC50 [5]: > 52 µM (inactive)

SMILES: O=C(CNC(=O)c1ccccc1F)N/N=C\C=C\c1ccccc1
- IC50 [8]: 9.57 µM (active)
- EC50 (cells [9]): > 29.9 µM (inactive)
- IC50 (cells [13]): > 29.9 µM (inactive)
- EC50 [14]: > 29.9 µM (inactive)
